Laboratory results from patent publication US8969565B2, “Imidazo[1,2-b]pyridazine-based compounds, compositions comprising them, and methods of their use” (Lexicon Pharmaceuticals, Inc., priority 2012, dated 2015).
pIC50: −log10 of the molar value.

Columns and labels:
AAK1 [1] = molecular target: T1, AAK1 (Homo sapiens, UniProt Q2M2I8); assay: HEK281 cell-based assay (phospho-mu2 Western blot in transfected HEK293F cells); conditions: 3 hours incubation, read-out: CBA IC50
T1 construct: HA; expressed in transfected cells; host or cells: HEK293F
T1 sequence (Q2M2I8 1-863 isoform Q2M2I8-2): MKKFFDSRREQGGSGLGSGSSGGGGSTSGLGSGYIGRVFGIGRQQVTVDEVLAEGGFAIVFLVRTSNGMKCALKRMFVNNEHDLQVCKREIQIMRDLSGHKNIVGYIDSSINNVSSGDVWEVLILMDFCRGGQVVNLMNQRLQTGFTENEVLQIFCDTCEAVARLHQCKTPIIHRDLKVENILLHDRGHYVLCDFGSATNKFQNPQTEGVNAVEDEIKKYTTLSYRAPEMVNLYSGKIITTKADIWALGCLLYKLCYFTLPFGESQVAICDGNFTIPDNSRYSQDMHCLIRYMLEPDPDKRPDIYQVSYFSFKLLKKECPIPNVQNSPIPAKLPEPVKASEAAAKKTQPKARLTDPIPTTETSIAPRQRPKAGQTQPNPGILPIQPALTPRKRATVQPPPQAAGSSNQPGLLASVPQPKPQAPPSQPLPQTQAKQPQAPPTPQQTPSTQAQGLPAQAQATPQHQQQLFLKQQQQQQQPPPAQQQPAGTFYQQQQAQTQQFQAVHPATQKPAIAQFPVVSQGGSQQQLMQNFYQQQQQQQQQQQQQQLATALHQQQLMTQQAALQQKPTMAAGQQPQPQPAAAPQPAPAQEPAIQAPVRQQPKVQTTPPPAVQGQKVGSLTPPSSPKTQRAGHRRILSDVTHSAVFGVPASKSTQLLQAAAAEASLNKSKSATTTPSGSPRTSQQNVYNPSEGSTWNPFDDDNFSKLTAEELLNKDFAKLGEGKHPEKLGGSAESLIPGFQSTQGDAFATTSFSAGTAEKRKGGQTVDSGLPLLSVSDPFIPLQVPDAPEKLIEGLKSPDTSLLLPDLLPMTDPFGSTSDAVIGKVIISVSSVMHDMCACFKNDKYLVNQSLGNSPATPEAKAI
Summary of the method: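 HEK293F cells co-transfected with full-length human AAK1/HA and Flag/AP2M1 were treated next day with 5 compound concentrations (3-fold dilutions) in DMEM+0.5% FBS for 3 hours at 37° C. Lysates were Western blotted for phospho-mu2, with total mu2 detected by anti-Flag.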

AAK1 [2] = molecular target: T1, AAK1; assay: P81 filter plate assay; assay type: biochemical; conditions: full-length human AAK1, Mu2 substrate

Row | SMILES | pIC50 (AAK1 [1]) | pIC50 (AAK1 [2])
1 | CC(C)OC(=O)N1CCC[C@H]1CNc1ccc2ncc(C#N)n2n1 [(S)-isopropyl 2-(((3-cyanoimidazo[1,2-b]pyridazin-6-yl)amino)methyl)pyrrolidine-1-carboxylate] | ≥ 6.00 | ≥ 8.00
2 | COc1ccc(-c2cnc3ccc(N4CC[C@H](N(C)C(=O)OC(C)C)C4)nn23)c(OC)n1 [(S)-isopropyl (1-(3-(2,6-dimethoxypyridin-3-yl)imidazo[1,2-b]pyridazin-6-yl)pyrrolidin-3-yl)(methyl)carbamate] | ≥ 7.00 | ≥ 8.00
3 | COc1ncc(C)cc1-c1cnc2ccc(N3CC[C@H](N(C)C(=O)OC(C)C)C3)nn12 [(S)-isopropyl (1-(3-(2-methoxy-5-methylpyridin-3-yl)imidazo[1,2-b]pyridazin-6-yl)pyrrolidin-3-yl)(methyl)carbamate] | ≥ 7.00 | ≥ 8.00
4 | COc1cc(-c2cnc3ccc(N4CC[C@H](N(C)C(=O)OC(C)C)C4)nn23)c(OC)nn1 [(S)-isopropyl (1-(3-(3,6-dimethoxypyridazin-4-yl)imidazo[1,2-b]pyridazin-6-yl)pyrrolidin-3-yl)(methyl)carbamate] | ≥ 7.00 | ≥ 8.00
5 | COc1ncc(F)cc1-c1cnc2ccc(N3CC[C@H](N(C)C(=O)OC(C)C)C3)nn12 [(S)-isopropyl (1-(3-(5-fluoro-2-methoxypyridin-3-yl)imidazo[1,2-b]pyridazin-6-yl)pyrrolidin-3-yl)(methyl)carbamate] | ≥ 7.00 | ≥ 8.00
6 | CC(C)OC(=O)N(C)[C@H]1CCN(c2ccc3ncc(-c4cccnc4)n3n2)C1 [(S)-isopropyl methyl(1-(3-(pyridin-3-yl)imidazo[1,2-b]pyridazin-6-yl)pyrrolidin-3-yl)carbamate] | ≥ 7.00 | ≥ 8.00
7 | CC(C)(C)COC(=O)N1CCC[C@H]1CNc1ccc2ncc(-c3ccc(CN)cc3)n2n1 [(S)-neopentyl 2-(((3-(4-(aminomethyl)phenyl)imidazo[1,2-b]pyridazin-6-yl)amino)methyl)pyrrolidine-1-carboxylate] | ≥ 8.00 | ≥ 8.00

Continued, values first:

Row | pIC50 (AAK1 [1]) | pIC50 (AAK1 [2]) | SMILES
8 | ≥ 8.00 | ≥ 8.00 | COc1ncccc1-c1cnc2ccc(N(C)C[C@@H]3CCCN3C(=O)OC(C)C)nn12 [(S)-isopropyl 2-(((3-(2-methoxypyridin-3-yl)imidazo[1,2-b]pyridazin-6-yl)(methyl)amino)methyl)pyrrolidine-1-carboxylate]
9 | ≥ 8.00 | ≥ 8.00 | COc1ncccc1-c1cnc2ccc(NC[C@@H]3CCCN3C(=O)OC(C)C)nn12 [(S)-isopropyl 2-(((3-(2-methoxypyridin-3-yl)imidazo[1,2-b]pyridazin-6-yl)amino)methyl)pyrrolidine-1-carboxylate]
10 | ≥ 8.00 | ≥ 8.00 | [2H]C([2H])([2H])Oc1ncccc1-c1cnc2ccc(N3CC[C@H](N(C)C(=O)OC(C)C)C3)nn12 [(S)-isopropyl (1-(3-(2-(tri-deuteromethoxy)pyridin-3-yl)imidazo[1,2-b]pyridazin-6-yl)pyrrolidin-3-yl)(methyl)carbamate]
11 | ≥ 8.00 | ≥ 8.00 | CC(C)OC(=O)N(C)[C@H]1CCN(c2ccc3ncc(-c4ccc(CN)cc4)n3n2)C1 [(S)-isopropyl (1-(3-(4-(aminomethyl)phenyl)imidazo[1,2-b]pyridazin-6-yl)pyrrolidin-3-yl)(methyl)carbamate]
12 | ≥ 8.00 | ≥ 8.00 | COc1ccc(F)cc1-c1cnc2ccc(N3CC[C@H](N(C)C(=O)OC(C)C)C3)nn12 [(S)-isopropyl (1-(3-(5-fluoro-2-methoxyphenyl)imidazo[1,2-b]pyridazin-6-yl)pyrrolidin-3-yl)(methyl)carbamate]
13 | ≥ 8.00 | ≥ 8.00 | COc1nc(C)ccc1-c1cnc2ccc(N3CC[C@H](N(C)C(=O)OC(C)C)C3)nn12 [(S)-isopropyl(1-(3-(2-methoxy-6-methylpyridin-3-yl)imidazo[1,2-b]pyridazin-6-yl)pyrrolidin-3-yl)(methyl)carbamate]
